The subject of the assay is cellular CDK9 activity (RNA Polymerase II Ser2 phosphorylation) in HCT-116 cells. The assay is described as follows: RNA-Polymerase II Ser2 cellular phosphorylation assay. The assay is classed as cell-based. As to conditions: Homo sapiens, 72 h, normalized with tubulin, read-out: RNA Polymerase II Ser2 Phosphorylation (activity range), IC50. As to the method: HCT-116 cells (DSMZ, Braunschweig, Germany) were maintained in Mc Coy's cell culture medium+glutamine (PAN Biotech GmbH, Aidenbach, Germany) supplemented with 10% fetal calf serum (PAA Laboratories GmbH, Pasching, Austria) and grown at 37° C., 5% CO2. For the cellular phosphorylation assay, cells were seeded with 2×10^5 cells/well/1 ml in 24-well plates (Greiner Bio One, Frickenhausen, Germany; catalog #662160). The compounds of general formula (I) summarized in Table 6 were diluted from a 10 mM DMSO stock solution 1:10 in a total volume of 15 μL DMSO. After overnight incubation at 37° C./5% CO2, 1.5 μL of a compound diluted in DMSO was added to each sample well. Wells with cells and 0.15% DMSO in culture medium were used as positive controls, wells without cells and 0.15% DMSO in culture medium were used as negative controls. The cells were incubated with the compounds for 72 h at 37° C./5% CO2. […] Phosphorylation of RNA Polymerase II Ser2 and tubulin levels for normalization were analyzed afterwards with the Multi-Array technology (Meso Scale Discovery, Gaithersburg, Md., USA), a combination of antibody coupled electrochemiluminescence detection and patterned arrays. […] Finally, plates were washed three times with Tris Wash Buffer, 150 μl 2× Read Buffer (Meso Scale Discovery) were added per well and plates were analyzed immediately in a Sector Imager from Meso Scale Discovery. […]

Regarding `COc1ccccc1-c1ccnc(Nc2cccc(S(N)(=O)=O)c2)c1` [Compound D1, 3-[(4-(2-Methoxyphenyl)pyridin-2-yl)amino]benzenesulfonamide], the half-inhibitory concentration (IC50) (usually the concentration needed to halve the response being measured) was 1 to 10 µM.

The values are drawn from patent US9242937B2, “Pharmaceutically active disubstituted pyridine derivatives” (Bayer Intellectual Property GmbH, priority 2011, dated 2016).
